The values that follow are results of earlier work, collected in patent US20120231098A1, “Weight loss composition” (priority 2011, published 2012).

The conditions of the data set: by increasing the utilization of fat stores in the body during exercise.

Structures are written as SMILES. A value given as a limit tells only on which side of the number the result lay.

Regarding `Cn1c(=O)c2c(ncn2C)n(C)c1=O` [Caffeine, caffeine], the increase in endurance is no less than 15%.
